From patent US9840513B2 (AbbVie S.à.r.l., priority 2015, dated 2017) come the findings set out here.

The target of the test is T1, F508delCFTR cell surface expression in CFBE41o-F508delCFTR-HRP cells (Homo sapiens, UniProt P13569, DEL508-508).
T1 construct: fused on or other part: Horseradish peroxidase (HRP) reporter inserted in the fourth exofacial (extracellular) loop of CFTR; expression is doxycycline-inducible
Kind of test: Cell Surface Expression-Horse Radish Peroxidase (CSE-HRP) Assay. It counts as cell-based. Conditions: for EC50: CFBE41o-F508delCFTR-HRP cells, 18-24 hours at 33° C., 8-point curve, highest concentration 20 μM; for Maximum % activity (%): maximum at any tested concentration, normalized to on-plate positive control (3 μM). Summed up:
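CFBE41o- cells with HRP-tagged F508delCFTR, expression induced by 0.5 μg/mL doxycycline for 72 h at 37 °C, then compound for 18-24 h at 33 °C (8-point, 3-fold, top 20 μM). Surface HRP measured by luminol luminescence; % activity normalised to 3 μM positive-control corrector; EC50 from variable-slope sigmoidal fit, three replicate plates.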

One may read the EC50 as the concentration at which the effect is half-maximal. Read a high EC50 as weaker potency.

T1 sequence (P13569 with tags, fused parts or gaps DEL508-508 limits assumed): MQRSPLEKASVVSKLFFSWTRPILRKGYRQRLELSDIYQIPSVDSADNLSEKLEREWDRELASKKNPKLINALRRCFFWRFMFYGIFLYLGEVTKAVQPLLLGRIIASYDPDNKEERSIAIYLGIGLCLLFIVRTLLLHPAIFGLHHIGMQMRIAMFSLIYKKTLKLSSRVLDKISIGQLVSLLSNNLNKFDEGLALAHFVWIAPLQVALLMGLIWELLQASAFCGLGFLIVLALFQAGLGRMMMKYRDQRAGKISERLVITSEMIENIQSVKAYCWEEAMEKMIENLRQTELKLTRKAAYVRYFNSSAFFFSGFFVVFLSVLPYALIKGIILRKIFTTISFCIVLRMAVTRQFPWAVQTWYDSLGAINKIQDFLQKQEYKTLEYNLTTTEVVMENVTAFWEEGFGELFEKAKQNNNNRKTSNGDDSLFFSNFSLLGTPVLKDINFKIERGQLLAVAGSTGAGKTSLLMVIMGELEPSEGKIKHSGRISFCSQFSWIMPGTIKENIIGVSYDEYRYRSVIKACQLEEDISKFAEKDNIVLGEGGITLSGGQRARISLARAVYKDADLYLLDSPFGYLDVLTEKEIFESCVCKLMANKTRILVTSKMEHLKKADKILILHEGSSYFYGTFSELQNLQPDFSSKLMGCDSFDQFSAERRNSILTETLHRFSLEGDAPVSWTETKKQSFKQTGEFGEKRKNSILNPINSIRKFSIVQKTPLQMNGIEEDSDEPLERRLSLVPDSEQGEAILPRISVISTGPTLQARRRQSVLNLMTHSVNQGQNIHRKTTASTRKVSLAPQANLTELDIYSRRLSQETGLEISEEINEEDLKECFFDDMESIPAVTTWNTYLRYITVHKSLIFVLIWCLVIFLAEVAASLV
T1 sequence (P13569 919-1480 limits assumed, stated change not applied): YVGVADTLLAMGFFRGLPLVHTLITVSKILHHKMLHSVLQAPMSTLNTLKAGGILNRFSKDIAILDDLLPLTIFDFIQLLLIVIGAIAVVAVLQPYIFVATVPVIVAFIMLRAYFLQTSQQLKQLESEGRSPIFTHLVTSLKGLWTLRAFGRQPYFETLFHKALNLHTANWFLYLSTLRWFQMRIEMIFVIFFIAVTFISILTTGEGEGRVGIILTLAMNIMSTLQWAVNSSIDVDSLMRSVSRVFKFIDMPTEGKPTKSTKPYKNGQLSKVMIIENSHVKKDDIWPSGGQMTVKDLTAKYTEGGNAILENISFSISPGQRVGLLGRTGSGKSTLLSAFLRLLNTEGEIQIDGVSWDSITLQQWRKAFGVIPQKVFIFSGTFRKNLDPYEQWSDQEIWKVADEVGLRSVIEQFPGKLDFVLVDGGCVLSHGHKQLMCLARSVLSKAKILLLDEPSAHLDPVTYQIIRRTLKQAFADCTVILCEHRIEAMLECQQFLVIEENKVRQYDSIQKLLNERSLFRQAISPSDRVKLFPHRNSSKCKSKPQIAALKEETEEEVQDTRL

Turning to `COc1ccc2c(c1)O[C@@H](c1ccc(C(C)=O)cn1)C[C@H]2NC(=O)[C@@]1(C)COc2cc3c(cc21)OC(F)(F)O3` [Example 180, (7R)—N-[(2R,4R)-2-(5-acetylpyridin-2-yl)-7-methoxy-3,4-dihydro-2H-1-benzopyran-4-yl]-2,2-difluoro-7-methyl-6,7-dihydro-2H-furo[2,3-f][1,3]benzodioxole-7-carboxamide], a half-maximal effect (EC50) was put at 20 nM and the “Maximum % activity (%)” value stood at 124%.

With `COc1ccc2c(c1)O[C@@H](c1ccc(C(C)(C)O)cn1)C[C@H]2NC(=O)[C@@]1(C)COc2cc3c(cc21)OC(F)(F)O3` [Example 181, (7R)-2,2-difluoro-N-{(2R,4R)-2-[5-(2-hydroxypropan-2-yl)pyridin-2-yl]-7-methoxy-3,4-dihydro-2H-1-benzopyran-4-yl}-7-methyl-6,7-dihydro-2H-furo[2,3-f][1,3]benzodioxole-7-carboxamide], a half-maximal response (EC50) required 30 nM and the “Maximum % activity (%)” value was 129%.

In the case of `C[C@]1(C(=O)N[C@@H]2C[C@H](C3CCNCC3)Oc3cc(OC(F)(F)F)ccc32)COc2cc3c(cc21)OC(F)(F)O3` [Example 182, (7R)-2,2-difluoro-7-methyl-N-[(2R,4R)-2-(piperidin-4-yl)-7-(trifluoromethoxy)-3,4-dihydro-2H-1-benzopyran-4-yl]-6,7-dihydro-2H-furo[2,3-f][1,3]benzodioxole-7-carboxamide], the response was half-maximal at 1680 nM (EC50) and the “Maximum % activity (%)” value worked out at 195%.

With `CC(C)(C)OC(=O)CN1CCC([C@@H]2C[C@H](NC(=O)[C@@]3(C)COc4cc5c(cc43)OC(F)(F)O5)c3ccc(OC(F)(F)F)cc3O2)CC1` [Example 183, tert-butyl {4-[(2S,4S)-4-{[(7R)-2,2-difluoro-7-methyl-6,7-dihydro-2H-furo[2,3-f][1,3]benzodioxole-7-carbonyl]amino}-7-(trifluoromethoxy)-3,4-dihydro-2H-1-benzopyran-2-yl]piperidin-1-yl}acetate], a half-maximal effect (EC50) was put at 2220 nM and the “Maximum % activity (%)” value was found to be 60%.

With `C[C@]1(C(=O)N[C@H]2C[C@@H](C3CCN(CC(=O)O)CC3)Oc3cc(OC(F)(F)F)ccc32)COc2cc3c(cc21)OC(F)(F)O3` [Example 184, {4-[(2S,4S)-4-{[(7R)-2,2-difluoro-7-methyl-6,7-dihydro-2H-furo[2,3-f][1,3]benzodioxole-7-carbonyl]amino}-7-(trifluoromethoxy)-3,4-dihydro-2H-1-benzopyran-2-yl]piperidin-1-yl}acetic acid], the EC50 is > 20000 nM and the “Maximum % activity (%)” value was found to be 12%.

With `C[C@]1(C(=O)N[C@H]2C[C@@H](C3CCNCC3)Oc3cc(OC(F)(F)F)ccc32)COc2cc3c(cc21)OC(F)(F)O3` [Example 185, (7R)-2,2-difluoro-7-methyl-N-[(2S,4S)-2-(piperidin-4-yl)-7-(trifluoromethoxy)-3,4-dihydro-2H-1-benzopyran-4-yl]-6,7-dihydro-2H-furo[2,3-f][1,3]benzodioxole-7-carboxamide], a half-maximal response (EC50) required 3350 nM and the “Maximum % activity (%)” value is listed as 31%.

Take `CC(C)(C)OC(=O)CN1CCC([C@H]2C[C@@H](NC(=O)[C@@]3(C)COc4cc5c(cc43)OC(F)(F)O5)c3ccc(OC(F)(F)F)cc3O2)CC1` [Example 186, tert-butyl {4-[(2R,4R)-4-{[(7R)-2,2-difluoro-7-methyl-6,7-dihydro-2H-furo[2,3-f][1,3]benzodioxole-7-carbonyl]amino}-7-(trifluoromethoxy)-3,4-dihydro-2H-1-benzopyran-2-yl]piperidin-1-yl}acetate]: a half-maximal response (EC50) required 670 nM and the “Maximum % activity (%)” value is 189%.

For `C[C@]1(C(=O)N[C@@H]2C[C@H](C3CCN(CC(=O)O)CC3)Oc3cc(OC(F)(F)F)ccc32)COc2cc3c(cc21)OC(F)(F)O3` [Example 187, {4-[(2R,4R)-4-{[(7R)-2,2-difluoro-7-methyl-6,7-dihydro-2H-furo[2,3-f][1,3]benzodioxole-7-carbonyl]amino}-7-(trifluoromethoxy)-3,4-dihydro-2H-1-benzopyran-2-yl]piperidin-1-yl}acetic acid], the concentration for a half-maximal effect (EC50) came out at 2540 nM and the “Maximum % activity (%)” value is reported as 129%.

Regarding `C[C@]1(C(=O)N[C@H]2C[C@@H](C3CCN(C[C@H](O)CO)CC3)Oc3cc(OC(F)(F)F)ccc32)COc2cc3c(cc21)OC(F)(F)O3` [Example 188, (7R)—N-[(2S,4S)-2-{1-[(2S)-2,3-dihydroxypropyl]piperidin-4-yl}-7-(trifluoromethoxy)-3,4-dihydro-2H-1-benzopyran-4-yl]-2,2-difluoro-7-methyl-6,7-dihydro-2H-furo[2,3-f][1,3]benzodioxole-7-carboxamide], the EC50 was > 20000 nM and the “Maximum % activity (%)” value is listed as 20%.

In the case of `C[C@]1(C(=O)N[C@@H]2C[C@H](C3CCN(C[C@H](O)CO)CC3)Oc3cc(OC(F)(F)F)ccc32)COc2cc3c(cc21)OC(F)(F)O3` [Example 189, (7R)—N-[(2R,4R)-2-{1-[(2S)-2,3-dihydroxypropyl]piperidin-4-yl}-7-(trifluoromethoxy)-3,4-dihydro-2H-1-benzopyran-4-yl]-2,2-difluoro-7-methyl-6,7-dihydro-2H-furo[2,3-f][1,3]benzodioxole-7-carboxamide], the midpoint of the response, the EC50, lay at 2030 nM and the “Maximum % activity (%)” value is 186%.

For `C=Cc1cnc([C@H]2C[C@@H](NC(=O)[C@@]3(C)COc4cc5c(cc43)OC(F)(F)O5)c3ccc(OC)cc3O2)cn1` [Example 190, (7R)—N-[(2R,4R)-2-(5-ethenylpyrazin-2-yl)-7-methoxy-3,4-dihydro-2H-1-benzopyran-4-yl]-2,2-difluoro-7-methyl-6,7-dihydro-2H-furo[2,3-f][1,3]benzodioxole-7-carboxamide], the half-maximal effective concentration (EC50) came out at 90 nM and the “Maximum % activity (%)” value is recorded as 115%.

As to `COc1ccc2c(c1)O[C@@H](c1cnc(Cl)cn1)C[C@H]2NC(=O)[C@@]1(C)COc2cc3c(cc21)OC(F)(F)O3` [Example 193, (7R)—N-[(2R,4R)-2-(5-chloropyrazin-2-yl)-7-methoxy-3,4-dihydro-2H-1-benzopyran-4-yl]-2,2-difluoro-7-methyl-6,7-dihydro-2H-furo[2,3-f][1,3]benzodioxole-7-carboxamide], the EC50 was 180 nM and the “Maximum % activity (%)” value came to 118%.

Take `CC(C)OC(=O)[C@H]1CC[C@H]([C@H]2C[C@@H](NC(=O)[C@@]3(C)COc4cc5c(cc43)OC(F)(F)O5)c3ccc(OC(F)(F)F)cc3O2)CC1` [Example 194, propan-2-yl trans-4-[(2R,4R)-4-{[(7R)-2,2-difluoro-7-methyl-6,7-dihydro-2H-furo[2,3-f][1,3]benzodioxole-7-carbonyl]amino}-7-(trifluoromethoxy)-3,4-dihydro-2H-1-benzopyran-2-yl]cyclohexane-1-carboxylate]: the half-maximal effective concentration (EC50) came to 60 nM and the “Maximum % activity (%)” value is given as 143%.

`COc1ccc2c(c1)O[C@@H](c1ccc(Cl)nn1)C[C@H]2NC(=O)[C@@]1(C)COc2cc3c(cc21)OC(F)(F)O3` [Example 195, (7R)—N-[(2R,4R)-2-(6-chloropyridazin-3-yl)-7-methoxy-3,4-dihydro-2H-1-benzopyran-4-yl]-2,2-difluoro-7-methyl-6,7-dihydro-2H-furo[2,3-f][1,3]benzodioxole-7-carboxamide]: the half-maximal effective concentration (EC50) is 340 nM and the “Maximum % activity (%)” value turned out to be 101%.

Take `COc1ccc2c(c1)OC(c1ccc(=O)n(C[C@@H](O)CO)n1)C[C@H]2NC(=O)[C@@]1(C)COc2cc3c(cc21)OC(F)(F)O3` (stereo partly drawn) [Example 196, (7R)—N-[(4R)-2-{1-[(2R)-2,3-dihydroxypropyl]-6-oxo-1,6-dihydropyridazin-3-yl}-7-methoxy-3,4-dihydro-2H-1-benzopyran-4-yl]-2,2-difluoro-7-methyl-6,7-dihydro-2H-furo[2,3-f][1,3]benzodioxole-7-carboxamide]: a half-maximal response (EC50) required 400 nM and the “Maximum % activity (%)” value was found to be 105%.

For the molecule `CC(C)(C)OC(=O)N[C@H]1CC[C@H]([C@@H]2C[C@H](NC(=O)[C@@]3(C)COc4cc5c(cc43)OC(F)(F)O5)c3ccc(OC(F)F)cc3O2)CC1` [Example 198, tert-butyl {trans-4-[(2S,4S)-7-(difluoromethoxy)-4-{[(7R)-2,2-difluoro-7-methyl-6,7-dihydro-2H-furo[2,3-f][1,3]benzodioxole-7-carbonyl]amino}-3,4-dihydro-2H-1-benzopyran-2-yl]cyclohexyl}carbamate], the 50% effective concentration (EC50) amounted to 1070 nM and the “Maximum % activity (%)” value amounted to 106%.

On to `CC(C)(C)OC(=O)N[C@H]1CC[C@H]([C@H]2C[C@@H](NC(=O)[C@@]3(C)COc4cc5c(cc43)OC(F)(F)O5)c3ccc(OC(F)F)cc3O2)CC1` [Example 199, tert-butyl {trans-4-[(2R,4R)-7-(difluoromethoxy)-4-{[(7R)-2,2-difluoro-7-methyl-6,7-dihydro-2H-furo[2,3-f][1,3]benzodioxole-7-carbonyl]amino}-3,4-dihydro-2H-1-benzopyran-2-yl]cyclohexyl}carbamate], for which it took 210 nM to reach a half-maximal effect (EC50) and the “Maximum % activity (%)” value was 149%.

In the case of `COc1ccc2c(c1)O[C@H](c1ccc(=O)[nH]n1)C[C@H]2NC(=O)[C@@]1(C)COc2cc3c(cc21)OC(F)(F)O3` [Example 200, (7R)-2,2-difluoro-N-[(2S,4R)-7-methoxy-2-(6-oxo-1,6-dihydropyridazin-3-yl)-3,4-dihydro-2H-1-benzopyran-4-yl]-7-methyl-6,7-dihydro-2H-furo[2,3-f][1,3]benzodioxole-7-carboxamide], it took 70 nM to reach a half-maximal effect (EC50) and the “Maximum % activity (%)” value was 132%.
